Reference: patent publication US9676756B2 (PORTOLA PHARMACEUTICALS, INC., priority 2012, dated 2017)
pIC50: −log10 of the molar value.

What was measured:
Type in all cases: biochemical
JAK2 = target: T1, JAK2 (Homo sapiens, UniProt O60674); test: JAK tyrosine phosphorylation activity, Z'-LYTE FRET kinase assay; conditions: catalytic domain recombinant kinase, Tyr6 peptide
T1 construct: 5 μl of catalytic domain recombinant Kinase enzyme+Tyr peptide substrate (Invitrogen, CA); purchased Invitrogen
Procedure: (§1) JAK and SYK tyrosine phosphorylation activity is measured using the Z'-LYTE™ Technology developed by Invitrogen Corporation (Carlsbad, Calif.). For JAK1, JAK2 and JAK3 the Z'-LYTE™ Kinase Assay Kit-Tyr6 Peptide (part number PV4122) was used. The Z'-LYTE™ biochemical assay employs a fluorescence resonance energy transfer (FRET) coupled-enzyme format and is based on the differential sensitivity of phosphorylated and non-phosphorylated peptides to proteolitic cleavage. The assay uses a synthetic peptide substrate that is labelled with a donor fluorophore (coumarin) and an acceptor fluorophore (fluorescein) that make up a FRET pair. In the primary reaction (the Kinase Reaction), the kinase transfers the γ-phosphate of ATP to a single tyrosine residue on the substrate, while the presence of a kinase inhibitor in the primary reaction suppresses phosphorylation. In the secondary reaction (the Development Reaction), a site-specific protease (the Development Reagent) is added. The development buffer quenches the Kinase Reaction, while the protease recognizes and cleaves non-phosphorylated Z'-LYTE™ peptide substrate. Cleavage disrupts FRET between the donor and acceptor fluorophores on the non-phosphorylated substrate, while uncleaved, phosphorylated substrate maintains FRET.
(§2) To test the ability of candidate molecules to inhibit JAK tyrosine phosphorylation activity, molecules are reconstituted in 100% DMSO and serially diluted 1:10 in polypropylene v-bottom microtiter plates. The candidate molecules are then diluted 1:25 into kinase buffer and 2.5 μl transferred into duplicate wells of a 384 well low volume black microtiter assay plate (Corning, USA). The final DMSO concentration in the assay is 1%. The kinase reaction contains 2.5 μl of a candidate molecule, 5 μl of catalytic domain recombinant Kinase enzyme+Tyr peptide substrate (Invitrogen, CA) and 2.5 μl ATP (Invitrogen, CA). The kinase reaction is allowed to precede for 1 hour at room temperature. The protease reaction is initiated by the addition of 5 μl Development Reagent (Invitrogen, CA). After 1 hour incubation at room temperature the fluorescence is measured using a FlexStation plate reader (Molecular Devices, Sunnyvale, Calif.). The reader settings used are as follows: Fluorescence mode, endpoint, top read, excitation 400 nm, emission 445 nm and 520 nm. Auto Cutoff 435 nm and 515 nm, PMT sensitivity high, 6 reads per well. Inhibition of JAK activity is calculated as the percent phosphorylation of substrate in the presence of inhibitor compared to the percent phosphorylation of substrate in the absence of inhibitor. IC50's were derived using Xlfit 4.3 (IDBS, UK), 4 parameter logistic model 205: Y=(A+((B−A)/(1+((C/x)^D)))).

JAK3 = target: T2, JAK3 (Homo sapiens, UniProt P52333); test: as above; conditions: catalytic domain recombinant kinase, Tyr6 peptide
T2 construct: 5 μl of catalytic domain recombinant Kinase enzyme+Tyr peptide substrate (Invitrogen, CA); purchased Invitrogen
Procedure: as §1, §2

JAK1 = target: T3, JAK1 (Homo sapiens, UniProt P23458); test: as above; conditions: catalytic domain recombinant kinase, Tyr6 peptide
T3 construct: 5 μl of catalytic domain recombinant Kinase enzyme+Tyr peptide substrate (Invitrogen, CA); purchased Invitrogen
Procedure: as §1, §2

[1] = target: T4, full length active recombinant SYK enzyme (Homo sapiens, UniProt P43405); test: SYK tyrosine phosphorylation activity, LANCE TR-FRET kinase assay; conditions: 1 nM SYK, 100 μM ATP, 1 hour at room temperature
T4 construct: full length active recombinant SYK enzyme (Millipore, CA); purchased Millipore
Procedure: Potency of candidate molecules for inhibiting Syk tyrosine phosphorylation activity is assessed by measuring the ability of a test compound to inhibit Syk-mediated tyrosine phosphorylation of a Syk-specific substrate.
SYK tyrosine phosphorylation activity is measured using the LANCE™ Technology developed by Perkin Elmer Life and Analytical Sciences (Boston, Mass.). LANCE™ refers to homogeneous time resolved fluorometry applications using techniques such as time-resolved fluorescence resonance energy transfer assay (TR-FRET) (see generally for procedures in Perkin Elmer Application Note—How to Optimize a Tyrosine Kinase Assay Using Time Resolved Fluorescence-Based LANCE Detection, wwww.perkinelmer.com/lifesciences). The assay principle involves detection of a phosphorylated substrate using energy transfer from a phosphospecific europium-labeled antibody to streptavidin-allophycocyanin as an acceptor.
To test the ability of candidate molecules to inhibit SYK tyrosine phosphorylation activity, molecules are reconstituted in 30% DMSO and serially diluted 1:3 with the final dilution containing DMSO in the absence of the candidate molecule. The final DMSO concentration in the assay is 3%. Kinase assays are performed as a two part reaction. The first reaction is a kinase reaction that comprises a candidate molecule, full length active recombinant SYK enzyme (Millipore, CA) and biotin-labeled SYK-specific substrate biotin-[…]-OH. The second reaction involves termination of the kinase reaction and the simultaneous addition of the detection reagents-europium-labeled anti-phosphotyrosine reagent (Eu-W1024-PY100, Perkin Elmer, Boston, Mass.) and Streptavidin-Allophycocyanin detection reagent (SA-APC, Prozyme, CA). The kinase reaction is performed in a black U-bottom 96-well microtitre plate. The final reaction volume is 50 μL and contains a final concentration of 1 nM active SYK enzyme, 550 nM SYK-substrate, and 100 μM ATP diluted in a buffer containing 50 mM Tris pH 7.5, 5 mM MgCl2, and 1 mM DTT. The reaction is allowed to proceed for 1 hour at room temperature. The stop buffer contains 100 mM Tris pH 7.5, 300 mM NaCl2, 20 mM EDTA, 0.02% Brij35, and 0.5% BSA. The detection reagents are added to the reaction mixture at the following dilutions—1:500 for Eu-W1024-PY100 and 1:250 for SA-APC. The kinase reaction is terminated by the addition of 50 μL stop buffer containing the detection reagents. The detection is allowed to proceed for 1 hr at room temperature. Detection of the phosphorolated substrate in the absence and presence of inhibitors is measured in the TR-FRET instrument, Analyst HT (Molecular Probes, Sunnyvale, Calif.) and the condition for measurements are set up using CriterionHost Release 2.0 (Molecular Probes, Sunnyvale, Calif.). The settings used are a follows: excitation 360 nm, emission 665-7.5 nm, beam splitter 350 nm 50/50, flash 100 pulses, delay 60 us, integration 400 us, z-height 2 mm. Inhibition of SYK-tyrosine kinase activity is calculated as the maximum response observed in the presence of inhibitor, compared to that in the absence of inhibitor. IC50s are derived by non-linear regression analysis.

T2 sequence (P52333 822-1111 limits assumed): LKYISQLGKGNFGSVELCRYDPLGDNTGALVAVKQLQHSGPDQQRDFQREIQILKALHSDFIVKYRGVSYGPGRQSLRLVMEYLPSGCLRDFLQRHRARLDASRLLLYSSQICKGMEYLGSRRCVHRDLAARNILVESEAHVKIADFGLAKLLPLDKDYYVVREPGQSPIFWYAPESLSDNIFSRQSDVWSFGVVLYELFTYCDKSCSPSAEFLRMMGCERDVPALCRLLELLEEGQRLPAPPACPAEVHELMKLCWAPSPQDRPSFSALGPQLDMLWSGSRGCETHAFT
T1 sequence (O60674 849-1124 limits assumed): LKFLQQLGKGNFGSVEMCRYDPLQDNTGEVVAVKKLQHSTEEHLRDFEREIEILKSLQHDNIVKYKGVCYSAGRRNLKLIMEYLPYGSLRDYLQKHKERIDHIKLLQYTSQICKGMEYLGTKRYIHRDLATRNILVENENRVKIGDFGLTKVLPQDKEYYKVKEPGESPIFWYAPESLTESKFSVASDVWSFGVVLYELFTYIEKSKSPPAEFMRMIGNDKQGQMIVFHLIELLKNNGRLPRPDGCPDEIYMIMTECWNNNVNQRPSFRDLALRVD
T3 sequence (P23458 875-1153 limits assumed): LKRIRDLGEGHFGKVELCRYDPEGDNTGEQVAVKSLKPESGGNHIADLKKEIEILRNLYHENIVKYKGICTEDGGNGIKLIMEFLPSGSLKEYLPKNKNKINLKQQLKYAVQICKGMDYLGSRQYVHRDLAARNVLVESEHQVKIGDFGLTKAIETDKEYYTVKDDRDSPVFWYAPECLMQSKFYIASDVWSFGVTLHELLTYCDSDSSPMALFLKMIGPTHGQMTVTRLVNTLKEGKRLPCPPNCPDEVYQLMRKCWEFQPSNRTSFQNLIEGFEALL

JAK2 IC50 potency class (JAK2) | JAK3 IC50 potency class (JAK3) | JAK1 IC50 potency class (JAK1) | IC50 [1] | pIC50 (JAK1; read-out: JAK1 IC50 % Inhibition) | SMILES
++++ (0.01 uM<IC50<0.001 uM) | ++++ (0.01 uM<IC50<0.001 uM) | +++ (0.10 uM<IC50<0.01 uM) | +++ (0.10 uM<IC50<0.01 uM) | – | CCS(=O)(=O)N1CCN(c2ccc(Nc3ncc(C(N)=O)c(NC4CC4)n3)cc2OC)CC1 [Compound 9, 4-(cyclopropylamino)-2-((4-(4-(ethylsulfonyl)piperazin-1-yl)-3-methoxyphenyl)amino)pyrimidine-5-carboxamide]
+++ (0.10 uM<IC50<0.01 uM) | ++++ (0.01 uM<IC50<0.001 uM) | +++ (0.10 uM<IC50<0.01 uM) | +++ (0.10 uM<IC50<0.01 uM) | – | COC(=O)N1CCC(c2ccc(Nc3ncc(C(N)=O)c(NC4CC4)n3)cc2)CC1 [Compound 10, methyl 4-(4-((5-carbamoyl-4-(cyclopropylamino)pyrimidin-2-yl)amino)phenyl)piperidine-1-carboxylate]
+++ (0.10 uM<IC50<0.01 uM) | +++ (0.10 uM<IC50<0.01 uM) | ++ (1.0 uM<IC50<0.10 uM) | +++ (0.10 uM<IC50<0.01 uM) | – | CCOC(=O)N1CCC(c2ccc(Nc3ncc(C(N)=O)c(NC4CC4)n3)cc2)CC1 [Compound 11, ethyl 4-(4-((5-carbamoyl-4-(cyclopropylamino)pyrimidin-2-yl)amino)phenyl)piperidine-1-carboxylate]
+++ (0.10 uM<IC50<0.01 uM) | ++++ (0.01 uM<IC50<0.001 uM) | +++ (0.10 uM<IC50<0.01 uM) | ++ (1.0 uM<IC50<0.10 uM) | – | CN(C)S(=O)(=O)N1CCC(c2ccc(Nc3ncc(C(N)=O)c(NC4CC4)n3)cc2)CC1 [Compound 12, 4-(cyclopropylamino)-2-((4-(1-(N,N-dimethylsulfamoyl)piperidin-4-yl)phenyl)amino)pyrimidine-5-carboxamide]
+++ (0.10 uM<IC50<0.01 uM) | ++++ (0.01 uM<IC50<0.001 uM) | +++ (0.10 uM<IC50<0.01 uM) | ++ (1.0 uM<IC50<0.10 uM) | – | NC(=O)c1cnc(Nc2ccc(C3CCN(C(=O)N4CCCC4)CC3)cc2)nc1NC1CC1 [Compound 13, 4-(cyclopropylamino)-2-((4-(1-(pyrrolidine-1-carbonyl)piperidin-4-yl)phenyl)amino)pyrimidine-5-carboxamide]
++++ (0.01 uM<IC50<0.001 uM) | ++++ (0.01 uM<IC50<0.001 uM) | +++ (0.10 uM<IC50<0.01 uM) | +++ (0.10 uM<IC50<0.01 uM) | – | NC(=O)c1cnc(Nc2ccc(C3CCN(C4CCOCC4)CC3)cc2)nc1NC1CC1 [Compound 14, 4-(cyclopropylamino)-2-((4-(1-(tetrahydro-2H-pyran-4-yl)piperidin-4-yl)phenyl)amino)pyrimidine-5-carboxamide]
++++ (0.01 uM<IC50<0.001 uM) | ++++ (0.01 uM<IC50<0.001 uM) | +++ (0.10 uM<IC50<0.01 uM) | +++ (0.10 uM<IC50<0.01 uM) | – | CCN1CCC(c2ccc(Nc3ncc(C(N)=O)c(NC4CC4)n3)cc2)CC1 [Compound 15, 4-(cyclopropylamino)-2-((4-(1-ethylpiperidin-4-yl)phenyl)amino)pyrimidine-5-carboxamide]
++ (1.0 uM<IC50<0.10 uM) | +++ (0.10 uM<IC50<0.01 uM) | – | ++ (1.0 uM<IC50<0.10 uM) | < 6.00 | NC(=O)c1cnc(Nc2ccc(C3CCN(c4ccccc4)CC3)cc2)nc1NC1CC1 [Compound 16, 4-(cyclopropylamino)-2-((4-(1-phenylpiperidin-4-yl)phenyl)amino)pyrimidine-5-carboxamide]
+++ (0.10 uM<IC50<0.01 uM) | +++ (0.10 uM<IC50<0.01 uM) | +++ (0.10 uM<IC50<0.01 uM) | ++ (1.0 uM<IC50<0.10 uM) | – | NC(=O)c1cnc(Nc2ccc(C3CCN(c4cccnc4)CC3)cc2)nc1NC1CC1 [Compound 17, 4-(cyclopropylamino)-2-((4-(1-(pyridin-3-yl)piperidin-4-yl)phenyl)amino)pyrimidine-5-carboxamide]
++++ (0.01 uM<IC50<0.001 uM) | ++++ (0.01 uM<IC50<0.001 uM) | +++ (0.10 uM<IC50<0.01 uM) | +++ (0.10 uM<IC50<0.01 uM) | – | N#CCC(=O)N1CCC(c2ccc(Nc3ncc(C(N)=O)c(NC4CC4)n3)cc2)CC1 [Compound 25, 2-((4-(1-(2-cyanoacetyl)piperidin-4-yl)phenyl)amino)-4-(cyclopropylamino)pyrimidine-5-carboxamide]
++++ (0.01 uM<IC50<0.001 uM) | ++++ (0.01 uM<IC50<0.001 uM) | +++ (0.10 uM<IC50<0.01 uM) | +++ (0.10 uM<IC50<0.01 uM) | – | CS(=O)(=O)N1CCN(c2ccc(Nc3ncc(C(N)=O)c(NC4CC4)n3)cc2F)CC1 [Compound 41, 4-(cyclopropylamino)-2-((3-fluoro-4-(4-(methylsulfonyl)piperazin-1-yl)phenyl)amino)pyrimidine-5-carboxamide]
++++ (0.01 uM<IC50<0.001 uM) | ++++ (0.01 uM<IC50<0.001 uM) | +++ (0.10 uM<IC50<0.01 uM) | +++ (0.10 uM<IC50<0.01 uM) | – | CCS(=O)(=O)N1CCN(c2ccc(Nc3ncc(C(N)=O)c(NC4CC4)n3)cc2F)CC1 [Compound 42, 4-(cyclopropylamino)-2-((4-(4-(ethylsulfonyl)piperazin-1-yl)-3-fluorophenyl)amino)pyrimidine-5-carboxamide]
+++ (0.10 uM<IC50<0.01 uM) | +++ (0.10 uM<IC50<0.01 uM) | ++ (1.0 uM<IC50<0.10 uM) | +++ (0.10 uM<IC50<0.01 uM) | – | CCS(=O)(=O)N1CCN(c2ccc(Nc3ncc(C(N)=O)c(NC4CC4)n3)cc2Cl)CC1 [Compound 43, 2-((3-chloro-4-(4-(ethylsulfonyl)piperazin-1-yl)phenyl)amino)-4-(cyclopropylamino)pyrimidine-5-carboxamide]
